Assay results as given in ChEMBL document CHEMBL3352491, “Novel semicarbazides and ureas of primaquine with bulky aryl or hydroxyalkyl substituents: synthesis, cytostatic and antioxidative activity” (Eur J Med Chem, 2014).

How the values were obtained:
L1210 = test: Cytostatic activity against mouse L1210 cells assessed as growth inhibition after 3 to 4 days by MTT assay; assay type: functional, cell-based
[1] = Cytostatic activity against human Molt4/C8 cells assessed as growth inhibition after 3 to 4 days by MTT assay; assay type: functional, cell-based; settings: MOLT-4
CCRF-CEM = test: Cytostatic activity against human CEM cells assessed as growth inhibition after 3 to 4 days by MTT assay; assay type: functional, cell-based
HeLa = test: Cytostatic activity against human HeLa cells assessed as growth inhibition after 3 to 4 days by MTT assay; assay type: functional, cell-based
[2] = Cytostatic activity against human MIAPaCa2 cells assessed as growth inhibition after 3 to 4 days by MTT assay; assay type: functional, cell-based; settings: MIA PaCa-2
SW-620 = test: Cytostatic activity against human SW620 cells assessed as growth inhibition after 3 to 4 days by MTT assay; assay type: functional, cell-based
MCF7 = test: Cytostatic activity against human MCF7 cells assessed as growth inhibition after 3 to 4 days by MTT assay; assay type: functional, cell-based
[3] = Cytostatic activity against human H460 cells assessed as growth inhibition after 3 to 4 days by MTT assay; assay type: functional, cell-based; settings: NCI-H460
[4] = Antioxidant activity assessed as DPPH scavenging activity at 100 uM after 20 mins by spectrophotometry; assay type: physicochemical
[5] = Antioxidant activity assessed as DPPH scavenging activity at 100 uM after 60 mins by spectrophotometry; assay type: physicochemical; settings: 1 h
[6] = Antioxidant activity assessed as inhibition of lipid peroxidation at 100 uM by spectrophotometry; assay type: physicochemical
Lipoxygenase = Lipoxygenase (Glycine max, UniProt Q39829); test: Inhibition of soybean LOX using sodium linoleate as substrate by spectrophotometry
[7] = target: Lipoxygenase (Glycine max) (UniProt Q39829); test: Inhibition of soybean LOX using sodium linoleate as substrate at 100 uM by spectrophotometry

Row | Structure (SMILES) | IC50 (L1210) | IC50 [1] | IC50 (CCRF-CEM) | IC50 (HeLa) | IC50 [2] | IC50 (SW-620) | IC50 (MCF7) | IC50 [3] | Activity [4] | Activity [5] | inhibition (INH) [6] | IC50 (Lipoxygenase; read-out: IC50) | inhibition [7] | IC50 (Lipoxygenase)
1 | COc1ccc(C(=NNC(=O)NNC(=O)NCCCC(C)Nc2cc(OC)cc3cccnc23)c2ccc(OC)cc2)cc1 (stereo not given) | 7.5 µM | 12 µM | 8 µM | 50 µM | 11 µM | ≥ 100 µM | 1 µM | 5 µM | 37% | 84% | 82% | 75 µM |  | 
2 | COc1cc(NC(C)CCCNC(=O)NNC(=O)NCCCC(C)Nc2cc(OC)cc3cccnc23)c2ncccc2c1 (stereo not given) | 92 µM | ≥ 250 µM | 87 µM | 67 µM | 69 µM | > 100 µM | 0.2 µM | 94 µM | 18% | 37% | 65% |  | 31% | 
3 | CN(C(=O)NN)C(c1ccccc1)c1ccccc1 | ≥ 250 µM | 144 µM | 127 µM | 174 µM | 127 µM | > 100 µM | ≥ 100 µM | > 100 µM | 24% | 47% | 7% |  |  | 
4 | COc1cc(NC(C)CCCNC(=O)NNC(=O)NC(c2ccccc2)c2ccc(Cl)cc2)c2ncccc2c1 (stereo not given) | 8.8 µM | 9.6 µM | 5.5 µM | 6.9 µM | 6 µM | 3 µM | 2 µM | 3 µM | 30% | 55% | 77% | 70.5 µM |  | 
5 | COc1cc(NC(C)CCCNC(=O)NNC(=O)N(C)C(c2ccccc2)c2ccccc2)c2ncccc2c1 (stereo not given) | 16 µM | 19 µM | 10 µM | 22 µM | 18 µM | 27 µM | 5 µM | 16 µM | 44% | 73% | 69% |  | 44% | 
6 | COc1cc(NC(C)CCCNC(=O)NNC(=O)Nc2ccc(Cl)c(C(F)(F)F)c2)c2ncccc2c1 (stereo not given) | 19 µM | 19 µM | 14 µM | 17 µM | 18 µM | 15 µM | 2 µM | 13 µM | 64% | 90% | 63% |  |  | Not Active
7 | COc1cc(NC(C)CCCNC(=O)NNC(=O)NC(CO)(CO)CO)c2ncccc2c1 (stereo not given) | > 250 µM | > 250 µM | > 250 µM | > 250 µM | > 250 µM | > 100 µM | 28 µM | > 100 µM | 18% | 40% | 49% |  | 6% | 
8 | O=C1NCCN1C(c1ccccc1)(c1ccccc1)c1ccccc1 | 68 µM | 21 µM | 27 µM | 102 µM | 31 µM | ≥ 100 µM | 63 µM | > 100 µM | Not Active | Not Active | 20% |  | 6% | 
9 | NNC(=O)NC(c1ccccc1)c1ccc(Cl)cc1 (stereo not given) | ≥ 250 µM | ≥ 250 µM | 217 µM | 182 µM | 178 µM | > 100 µM | ≥ 100 µM | > 100 µM | 14% | 27% | 52% |  | 9% | 
10 | COc1cc(NC(C)CCCNC(=O)NNC(=O)N(CCO)CCO)c2ncccc2c1 (stereo not given) | > 250 µM | > 250 µM | > 250 µM | > 250 µM | > 250 µM | > 100 µM | 29 µM | > 100 µM | 25% | 45% | 43% |  | 30% | 
11 | O=C(NC(c1ccccc1)c1ccc(Cl)cc1)n1nnc2ccccc21 (stereo not given) | 67 µM | 176 µM | 116 µM | 87 µM | 110 µM | 23 µM | 42 µM | 18 µM | 24% | 12% | 63% |  | 28% | 
12 | Cc1c(C)c2c(c(C)c1O)CCC(C)(C(=O)O)O2 (stereo not given) [TROLOX] |  |  |  |  |  |  |  |  |  |  | 63% |  |  | 
13 | COc1cc(NC(C)CCCNC(=O)N(C)C(c2ccccc2)c2ccccc2)c2ncccc2c1 (stereo not given) | 6.7 µM | 10 µM | 5.2 µM | 121 µM | 21 µM | > 100 µM | 9 µM | ≥ 100 µM | 20% | 16% | 79% |  |  | 
14 | CCOC(=O)N(C)C(c1ccccc1)c1ccccc1 | 96 µM | 105 µM | 108 µM | 80 µM | 94 µM | 27 µM | 26 µM | ≥ 100 µM | Not Active | Not Active | Not Active |  |  | 
15 | COc1cc(NC(C)CCCNC(=O)Nc2ccc(Cl)c(C(F)(F)F)c2)c2ncccc2c1 (stereo not given) | 3.6 µM | 3.4 µM | 3.1 µM | 3.9 µM | 4 µM | 23 µM | 4 µM | 28 µM | 20% | 21% | 61% |  | 43% | 
16 | O=C(NC(c1ccccc1)c1ccc(Cl)cc1)NC(c1ccccc1)c1ccc(Cl)cc1 (stereo not given) | 250 µM | > 250 µM | > 250 µM | > 250 µM | 97 µM | > 100 µM | > 100 µM | > 100 µM | Not Active | Not Active | 33% |  | 38% | 
17 | COc1cc(NC(C)CCCNC(=O)NCCCC(C)Nc2cc(OC)cc3cccnc23)c2ncccc2c1 (stereo not given) | 92 µM | > 250 µM | 5 µM | > 250 µM | 186 µM | > 100 µM | 6 µM | > 100 µM | 20% | 32% | 89% |  | 6% | 
18 | COc1cc(NC(C)CCCNC(=O)NNC(=O)NCCCCCO)c2ncccc2c1 (stereo not given) | > 250 µM | ≥ 250 µM | 170 µM | ≥ 250 µM | 168 µM | > 100 µM | 4 µM | > 100 µM | 14% | 32% | 54% |  | 4% | 
19 | COc1cc(NC(C)CCCNC(=O)NN)c2ncccc2c1 (stereo not given) | > 250 µM | ≥ 250 µM | > 250 µM | ≥ 250 µM | ≥ 250 µM | > 100 µM | 16 µM | > 100 µM | 61% | 82% | 70% |  | 42% | 
20 | CCOC(=O)NC(c1ccccc1)c1ccc(Cl)cc1 (stereo not given) | > 250 µM | > 250 µM | > 250 µM | > 250 µM | 142 µM | > 100 µM | > 100 µM | > 100 µM | Not Active | Not Active | 21% |  |  | 
